Reference: the supplement of paper PMC10307832

Key:
Assay in all cases: relative viability (nuclei count vs DMSO), 5 days (fraction); higher = more cells survive
IDH-C35 + Luminespib = compound: Cc1ccccc1C(C(=O)NC1CCCCC1)N(C(=O)Cn1ccnc1C)c1cccc(F)c1 [IDH-C35] + CCNC(=O)c1noc(-c2cc(C(C)C)c(O)cc2O)c1-c1ccc(CN2CCOCC2)cc1 [Luminespib] (partner 0.01 µM)
Summary of the method: (§1)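 For relative viability, nuclei counts in treated wells were divided by those in vehicle wells. Lung cancer cell lines had been pin-tool dosed in 1536-well plates the day after seeding and cultured for 5 days, then fixed and stained in one step (final 0.05% Triton X-100, 1% formaldehyde, 1 ug/ml Hoechst) and imaged at 4×. Doses were one drug alone or a fixed anchor-drug dose plus five library-drug doses (not always all listed) in √10 steps, and values are duplicate-plate medians.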

IDH-C35 + Alpelisib = compound: Cc1ccccc1C(C(=O)NC1CCCCC1)N(C(=O)Cn1ccnc1C)c1cccc(F)c1 [IDH-C35] + Cc1nc(NC(=O)N2CCC[C@H]2C(N)=O)sc1-c1ccnc(C(C)(C)C(F)(F)F)c1 [Alpelisib] (partner 2 µM)
Summary of the method: as §1

IDH-C35 + Decitabine = compound: Cc1ccccc1C(C(=O)NC1CCCCC1)N(C(=O)Cn1ccnc1C)c1cccc(F)c1 [IDH-C35] + Nc1ncn([C@H]2C[C@H](O)[C@@H](CO)O2)c(=O)n1 [Decitabine] (partner 2 µM)
Summary of the method: as §1

[1] = compound: CC1=C(C(=NN1)C)CC2=C(C3=C(S2)N(C(=O)N(C3=O)C)CC(C)C)C(=O)N4C[C@@H](CO4)O + Cc1nc(Nc2ncc(C(=O)Nc3c(C)cccc3Cl)s2)cc(N2CCN(CCO)CC2)n1 [Dasatinib] (partner 0.075 µM)
Summary of the method: as §1

Question: UMC-11 was tested. Which relative viability (IDH-C35 + Luminespib; first compound 0.08 µM) did it give?
Answer: Its relative viability is 1.01.

Question: What about the relative viability (IDH-C35 + Luminespib; first compound 0.253 µM) of the same cell line?
Answer: Its relative viability is 1.03.

Question: And the relative viability (IDH-C35 + Luminespib; first compound 0.8 µM)?
Answer: The relative viability was 1.02.

Question: And the relative viability (IDH-C35 + Luminespib; first compound 2.53 µM)?
Answer: The relative viability was 1.08.

Question: What about the relative viability (IDH-C35 + Luminespib; first compound 8 µM) of the same cell line?
Answer: The relative viability was 1.01.

Question: What about the relative viability (IDH-C35 + Alpelisib; first compound 0.08 µM) of the same cell line?
Answer: The relative viability was 0.998.

Question: And the relative viability (IDH-C35 + Alpelisib; first compound 0.253 µM)?
Answer: Its relative viability is 0.973.

Question: And the relative viability (IDH-C35 + Alpelisib; first compound 0.8 µM)?
Answer: The relative viability was 0.928.

Question: And the relative viability (IDH-C35 + Alpelisib; first compound 2.53 µM)?
Answer: The relative viability was 0.946.

Question: What about the relative viability (IDH-C35 + Alpelisib; first compound 8 µM) of the same cell line?
Answer: Its relative viability is 0.988.

Question: What about the relative viability (IDH-C35 + Decitabine; first compound 0.08 µM) of the same cell line?
Answer: Its relative viability is 0.572.

Question: And the relative viability (IDH-C35 + Decitabine; first compound 0.253 µM)?
Answer: Its relative viability is 0.724.

Question: What about the relative viability (IDH-C35 + Decitabine; first compound 0.8 µM) of the same cell line?
Answer: The relative viability was 0.576.

Question: What about the relative viability (IDH-C35 + Decitabine; first compound 2.53 µM) of the same cell line?
Answer: The relative viability was 0.609.

Question: What about the relative viability (IDH-C35 + Decitabine; first compound 8 µM) of the same cell line?
Answer: The relative viability was 0.619.

Question: What about the relative viability ([1]; first compound 0.0025 µM) of the same cell line?
Answer: Its relative viability is 0.435.

Question: What about the relative viability ([1]; first compound 0.007906 µM) of the same cell line?
Answer: Its relative viability is 0.468.

Question: What about the relative viability ([1]; first compound 0.025 µM) of the same cell line?
Answer: The relative viability was 0.451.

Question: And the relative viability ([1]; first compound 0.07906 µM)?
Answer: The relative viability was 0.348.

Question: What about the relative viability ([1]; first compound 0.25 µM) of the same cell line?
Answer: The relative viability was 0.439.
